Laboratory results as given in US12448393B2, “Use of novel compound, for preventing, improving or treating amyotrophic lateral sclerosis” (PRG S&TECH INC., priority 2019, dated 2025).
“Also recorded” adds a separate entry of the source.

What was measured:
SOD1 [1] = experiment: Western blot / native gel analysis of SOD1 aggregation; format: cell-based, human; details: Table 1; effect on SOD1 aggregation, native / non-SDS-PAGE gel
Experimental: Using RIPA buffer (50 mM Tris-Cl, pH 7.5, 150 mM NaCl, 1% NP-40, 0.1% SDS and […]) for SDS-PAGE and lysis buffer (50 mM Tris-Cl, pH 7.5, 150 mM NaCl, 0.3% NP-40) for Native-PAGE, proteins were extracted from cells. Samples were separated by the SDS-PAGE or the Native-PAGE and transferred to PVDF membrane. Blotted membrane was blocked with TBST buffer including 3% skim milk for 1 hour, and reacted with specific antibodies. The reacted antibodies were detected by ECL and X-ray film exposure. Antibodies used in the present disclosure are as follows: pan-SOD1 (GTX100554) was purchased from Genetex (California, USA). Misfolded SOD1-specific antibody (B8H10) was purchased from MediMabs (Montreal, Canada). Actin (sc-1616), GST (sc-138), and GFP (Green fluorescent protein; sc-8036) were purchased from Santa Cruz biotechnology (Santa Cruz, CA, USA). TDP-43 antibody (10782-2-AP) was purchased from Proteintech (Rosemont, IL, USA). Anti-FLAG (Sigma; F3165) was purchased from Sigma Aldrich (St, Louis, Mo, USA), and HRP-conjugated goat anti-mouse, goat anti-rabbit, and mouse anti-goat antibodies (Pierce, Thermo Fisher Scientific, Inc., Rockford, IL, USA) were used as secondary antibodies.
(§1) GFP-SOD1 (WT, G85R, G93A), non-tagged SOD1 (WT, A4V, G37R, G85R, G93A) and tdTomato-TDP43 expression vectors were purchased from Addgene (Cambridge, MA, USA). Transfection was performed using Jet-PEI reagent (JetPEI; Polyplus transfection, New York, NY, USA) according to the manufacturer's protocol. Briefly, vectors were mixed with JetPEI reagent in 150 mM NaCl buffer, and then mixture was reacted for 15 minutes. The mixture was added to cells in serum-free medium and reacted for 4 hours. After reaction, the cells were replaced with a culture medium supplemented with 10% FBS.

SOD1 [2] = experiment: Immunofluorescence staining of SOD1 aggregation and misfolded SOD1; format: cell-based, human; details: Table 1; IF staining of SOD1
Experimental: Cells on coverslip were washed with PBS, fixed with 4% PFA at room temperature for 30 minutes, and then infiltrated with 0.1% Triton X-100/PBS for 10 minutes. The cells were treated with blocking solution (anti-Human Antibody 1:500 dilution in PBS) for 1 hour, and then cells were reacted with anti-pan SOD1 (1:400 dilution), misfolded SOD1 (B8H10; 1:200 dilution in blocking solution) at 4° C. overnight. Finally, the cells were reacted with FITC and rhodamine-conjugated secondary antibody at 4° C. for 6 hours. Nuclei were stained with 4,6-diamidino-2-phenylindole (DAPI), and endoplasmic reticula (ERs) were stained with ER-Tracker Red dye for 10 minutes. The cells were washed 3 times with PBS, and then coverslips were mounted with mounting solution [H-5501; Vector Laboratories (Burlingame, CA, USA)] and analyzed by fluorescence microscopy (Zeiss).
as §1

[3] = system: WT-SOD1 and mutant SOD1-GST (A4V, G37R, G85R, G93A); experiment: ELISA compound screening for binding inhibitor between WT-SOD1 and mutant SOD1; design: species or system human; details: Table 1; compounds at final concentration of 50 μM
Experimental: For compound screening, the present inventors applied an ELISA assay system. To select a binding inhibitor between WT-SOD1 and mutant SOD1, the present inventors used 0.5% paraformaldehyde (PFA) to fix WT-SOD1 recombinant protein on a 96-well plate. The plate was dried, washed with phosphate-buffered saline (PBS), and reacted with the compounds at a final concentration of 50 μM, and then mutant SOD1-GST (A4V, G37R, G85R, G93A) proteins were added. After 2 hours of reaction, the 96-well plate was washed with PBS and blocked with 3% skim milk to prevent non specific reaction. The plate was reacted with anti-GST antibody (diluted at 1:10,000) for 1 hour, and then reacted with anti-mouse IgG-HRP (diluted at 1:50,000) for 1 hour. After washing twice, the plate was reacted with a 3,3′,5,5′-tetramethylbenzidine (TMB) solution (Calbiochem) for 30 minutes and a stop solution (1N H2SO4) for 30 minutes. Finally, the present inventors analyzed values using an ELISA reader (450 nm absorbance). Negative control (−; red line) was reacted without mutant SOD1, and positive control (+; blue line) was reacted with mutant SOD1 without the compounds.
To prepare recombinant proteins, human SOD1 (WT, A4V, G37R, G85R, G93A) was added to EcoRI and HindIII sites of pGEX-TEV vector, an improved vector made by adding a TEV protease cleavage site to pGEX-4T1 (Invitrogen). The recombinant proteins were expressed as GST-fusion proteins in Escherichia coli (E. coli) strain BL21 (DE3). The proteins were purified by glutathione-affinity chromatography.

SOD1^G93A-Tg mice = experiment: In vivo drug treatment of ALS model mice (grip strength, behaviour, histology, survival); design: species or system mouse; details: for effects in ALS model mice: FIGS. 11A and 11B, summary statements; for In vivo: Table 1, ALS model mice
Experimental: An experiment was performed in a facility approved by the Association for Laboratory Animal Care Assessment and Accreditation in accordance with the animal policy approved by Busan National University. B6SJL-Tg (SOD1^G93A) mice were purchased from Jackson Laboratory (Stock No: 002726). All mice were maintained under temperature and light-controlled conditions (20˜23° C., light-dark cycle 12 hr-12 hr) and were provided with sterile food and water.
Vehicle (DMSO) and SLC-B036 (10 mg/kg, 20 mg/kg) were administered to 12-week-old or 14-week-old SOD1^G93A mice via intraperitoneal injection twice weekly for 6 weeks. Control mice were treated under the same conditions. For histological analysis, mice were sacrificed at 18 weeks. After dissection of mice, spinal cord was fixed with 4% paraformaldehyde for 48 hours according to basic tissue processing procedures, and embedded in a paraffin block. An embedded tissue (cervical region of the spinal cord) was cut into 5 μm with a Leica microtome, and transferred to an adhesive-coated slide (Marienfeld laboratory glassware, Germany). After deparaffinization and rehydration, the slide was stained with hematoxylin and eosin to determine the number of spinal nerves.
For behavioral experiment, grip strength was checked every 2 weeks using a grip strength meter. The mice were allowed to grasp a tension bar with their forelimbs, and then their tails were slowly pulled until they released the bar. To observe motility, respiration, and quadriplegia of the mice, image analysis was performed at the end of administration (18-20 weeks).

normal human fibroblasts = experiment: Cell viability measurement (MTT), normal fibroblasts; format: cell-based; details: for cytotoxic effect in normal fibroblasts: MTT, FIG. 4E, FIG. 9B; for Toxicity (MTT): Table 1, cell type not given, neurons (FIG. 9A) and normal fibroblasts (FIG. 9B)
Experimental: (§2) HEK293 cells were purchased from American Type Culture Collection (ATCC, Manassas, VA, USA) and maintained at 37° C. and 5% CO2 in DMEM liquid medium including 10% fetal bovine serum and 1% penicillin-streptomycin. SK—N—SH cells were purchased from Korean Cell Line Bank (KCLB, Seoul, South Korea) and maintained in MEM medium including 10% fetal bovine serum, 1% antibiotic, 25 mM HEPES, and 300 mg/L L-Glu. Human fibroblasts (person) were purchased from Coriell Cell Repositories (New Jersey, USA) and maintained in EMEM including 15% FBS, 2 mM Glutamine, and 26 mM HEPES without antibiotics. Thapsigargin (ER calcium scavenger: CAS 67526-95-8) was purchased from Calbiochem (Darmstadt, Germany). CoCl2 (hypoxia-inducer: C8661) was purchased from Sigma Aldrich (St, Louis, Mo, USA).
(§3) To check cells viability, the cells were reacted with 0.5 mg/ml MTT solution (475989; Merck, Darmstadt, Germany) at 37° C. for 4 hours. After removing residual solution and washing with PBS, precipitate was dissolved in 200 μl DMSO, and quantified by measuring absorbance at 540 nm.

neurons = experiment: Cell viability measurement (MTT), neurons; format: cell-based; details: FIG. 9A
Experimental: as §2, §3

[4] = Pharmacokinetics (PK) analysis; format: in vivo; details: for PK study BA: Table 1

| ELISA [3] | PK study BA [4] | PK profile ([4]; FIG. 10) | SMILES | Western Blot (SOD1 [1]) | Immuno-fluorscence (SOD1 [2]) | effects in ALS model mice (SOD1^G93A-Tg mice) | In vivo (SOD1^G93A-Tg mice) | cytotoxic effect in normal fibroblasts (normal human fibroblasts) | Toxicity (MTT) (normal human fibroblasts) | cytotoxicity in neurons (neurons) |
| --- | --- | --- | --- | --- | --- | --- | --- | --- | --- | --- |
| Effect ○ | (0.3%) |  | COc1cc(/C=C/CO[C@H]2Cc3cc4ccc(=O)oc4cc3OC2(C)C)ccc1O [PRG-A-02, (S,E)-7-((3-(4-hydroxy-3-methoxyphenyl)allyl)oxy)-8,8-dimethyl-7,8-dihydro-2H,6H-pyrano[3,2-g]chromen-2-one] | Effect ○ | Effect ○ | good effects | Effect ○ | did not exhibit cytotoxicity | No | did not exhibit cytotoxicity |
| Effect ○ | (3.7%) |  | CC1(C)Oc2cc3oc(=O)ccc3cc2C[C@@H]1OC(=O)/C=C/c1ccc(F)cc1 [PRG-A-03, (S)-8,8-dimethyl-2-oxo-7,8-dihydro-2H,6H-pyrano[3,2-g]chromen-7-yl (E)-3-(4-fluorophenyl) acrylate] | Effect ○ | Effect ○ | good effects | Effect ○ | did not exhibit cytotoxicity | No | did not exhibit cytotoxicity |
| Effect ○ | 60.7% | appropriate PK profile | COc1cc(/C=C/CO[C@H]2Cc3cc4ccc(=O)oc4cc3OC2(C)C)ccc1[N+](=O)[O-] [PRG-A-04, (S,E)-7-((3-(3-methoxy-4-nitrophenyl)allyl)oxy)-8,8-dimethyl-7,8-dihydro-2H,6H-pyrano[3,2-g]chromen-2-one] | Effect ○ | Effect ○ | Excellent effects; also recorded: good effects | Effect ○ | did not exhibit cytotoxicity | No | did not exhibit cytotoxicity |
